Data as given in US7612079B2, “2,6,9-substituted purine derivatives and their use in the treatment of proliferative disorders” (Cyclacel Limited, priority 2001, dated 2009).
Where “and” joins values, the source holds several entries; their conditions need not be identical. Equal values may be shown once.

Assays:
A2780 = experiment: 72-h MTT proliferation assay, A2780; type: cell-based; settings: Homo sapiens, read-out: IC50 Cell line A2780
Description: (§1) Selected compounds from the above examples were subjected to a standard cellular proliferation assay using seven different human tumour cell lines: A2780, A278CisF, CH1, CH1DoxR, HCT116, HT29 and KM12. […] Human tumour cell lines were obtained from the ATCC (American Type Culture Collection, 10801 University Boulevard, Manessas, Va. 20110-2209, USA). The results are shown in Table 1, together with the average IC50 over the seven different cell lines.

A2780 CisR = experiment: 72-h MTT proliferation assay, A2780 CisR; type: cell-based; settings: Homo sapiens, A2780cisR, read-out: IC50 Cell line A2780 CisR
Description: as §1

CH1 = experiment: 72-h MTT proliferation assay, CH1; type: cell-based; settings: Homo sapiens, read-out: IC50 Cell line CH1
Description: as §1

CH1DoxR = experiment: 72-h MTT proliferation assay, CH1DoxR; type: cell-based; settings: Homo sapiens, read-out: IC50 Cell line CH1DoxR
Description: as §1

HCT116 = experiment: 72-h MTT proliferation assay, HCT116; type: cell-based; settings: Homo sapiens, HCT-116, read-out: IC50 Cell line HCT116
Description: as §1

HT29 = experiment: 72-h MTT proliferation assay, HT29; type: cell-based; settings: Homo sapiens, HT-29, read-out: IC50 Cell line HT29
Description: as §1

KM12 = experiment: 72-h MTT proliferation assay, KM12; type: cell-based; settings: Homo sapiens, read-out: IC50 Cell line KM12
Description: as §1

[1] = tested on: seven different human tumour cell lines: A2780, A278CisF, CH1, CH1DoxR, HCT116, HT29 and KM12; experiment: 72-h MTT proliferation assay, average over seven cell lines; type: cell-based; settings: read-out: IC50 Cell line Average
Description: Selected compounds from the above examples were subjected to a standard cellular proliferation assay using seven different human tumour cell lines: A2780, A278CisF, CH1, CH1DoxR, HCT116, HT29 and KM12.

[2] = Metabolic carbinol-carboxyl oxidation; settings: remark in Table 1
CDK4/cyclin D1 = CDK4/cyclin D1 (Homo sapiens, UniProt P11802); experiment: CDK4/cyclin D1 kinase assay (GST-Rb phosphorylation); type: biochemical; settings: Table 2; read-out: Kinase inhibition CDK4/cyclin D1 IC50
Experimental: (§2) Assays for CDK2/cyclin E kinase, CDK1/cyclin B and CDK4/cyclin D1 may be carried out by monitoring phosphorylation of GST-Rb in an appropriate system. […] The phosphorylation reaction mixture (total volume 40 μl) consisted of 50 mM HEPES pH 7.4, 20 mM MgCl2, 5 mM EGTA, 2 mM DTT, 20 mM β-glycerophosphate, 2 mM NaF, 1 mM Na3VO4, Protease Inhibitors Cocktail (Sigma, see above), BSA 0.5 mg/ml, 1 μg purified enzyme complex, 10 μl of GST-Rb-Sepharose-beads, 100 μM ATP, 0.2 μCi ^32P-ATP. The reaction is carried out for 30 min at 30° C. at constant shaking. At the end of this period 100 μl of 50 mM HEPES, pH 7.4 and 1 mM ATP is added to each well and the total volume transferred onto GFC filtered plate. The plate is washed 5 times with 200 μl of 50 mM HEPES, pH 7.4 and 1 mM ATP. To each well was added 50 μl scintillant liquid and the radioactivity of the samples is measured on Scintilation counter (Topcount, HP). The IC50 values of different peptides were calculated using GraFit software.

CDK7/cyclin H = CDK7/cyclin H (Homo sapiens, UniProt P50613); experiment: CDK7/cyclin H kinase inhibition; type: biochemical; settings: Table 2
[3] = target: T1, cyclic AMP-dependent kinase (PKA) catalytic subunit (Homo sapiens, UniProt P17612); experiment: PKA kinase assay (Kemptide phosphorylation); type: biochemical; settings: Table 2; read-out: Kinase inhibition PKA IC50
T1 construct: purchased Calbiochem 539487
Experimental: The reaction mixture (total volume 50 μl) consisted of 20 mM MOPS, pH 7.2, 25 mM β-glycerophosphate, 5 mM EGTA, 1 mM DTT, 1 mM Na3VO4, 10 mM MgCl2, 100 μM ATP, 0.2 μCi [γ-^32P]-ATP.

mouse ERK-2 = target: T2, mouse ERK-2 (Mus musculus, UniProt P63085); experiment: ERK-2 kinase assay (MBP phosphorylation); type: biochemical; settings: Table 2; read-out: Kinase inhibition ERK2 IC50
T2 construct: purchased Upstate Biotechnologies
Experimental: ERK-2 kinase activity was measured by the incorporation of radioactive phosphate into myelin basic protein (MBP), catalysed by purified mouse ERK-2 (Upstate Biotechnologies). The reaction mixture (total volume 50 μL) consisted of 20 mM MOPS, pH 7.0,25 mM β-glycerophosphate, 5 mM EGTA, 1 mM DTT, 1 mM Na3VO4, 10 mM MgCl2, 100 μM ATP, 0.2 μCi [γ-^32P]-ATP.

A549, HT29, Saos-2 = experiment: In vitro anti-proliferative activity, 72-h MTT, A549, HT29, Saos-2; type: cell-based; settings: read-out: In vitro anti-proliferative activity (72-h MTT IC50), Cell lines: A549, HT29, Saos-2
CDK2/cyclin E = target: T3, CDK2/cyclin E (Homo sapiens, UniProt P24941); experiment: CDK2/cyclin E kinase assay (GST-Rb phosphorylation); type: biochemical; settings: Table 1
T3 construct: His; made in house; host or cells: Sf9 insect cells (baculovirus)
Experimental: as §2
For use in said assay CDK2 may be obtained from available sources or produced by recombinant methods as described His-tagged CDK2/Cyclin E and CDK1/Cyclin B may be co-expressed in Sf 9 insect cells infected with the appropriate baculovirus constructs. The cells are harvested two days after infection by low speed centrifugation and the proteins purified from the insect cell pellets by Metal-chelate chromatography. Briefly, the insect cell pellet is lysed in Buffer A (10 mM Tris-HCl, pH 8.0, 150 mM NaCl, 0.02% NP40 and 5 mM, β-marcaptoethanol, 1 mM NaF. 1 mM Na3VO4 and Protease Inhibitors Coctail (Sigma) containing AEBSF, pepstatin A, E 64, bestatin, leupeptin) by sonication. The soluble fraction is cleared by centrifugation and loaded onto Ni-NTA-Agarose (Quiagen). Non bound proteins were washed off with 300 mM NaCl, 5-15 mM Imidazole in Buffer A and the bound proteins eluted with 250 mM Imidazole in Buffer A. The purified proteins are extensively dialyzed against Storage buffer (20 mM HEPES pH 7.4, 50 mM NaCl, 2 mM DTT, 1 mM EDTA, 1 mM EGTA, 0.02% NP40, 10% v/v Glycerol) aliquoted and stored at −70° C. PKC-α—6×His may be purified the same way but using different buffers—50 mM NaH2PO4, pH 8.0 and 0.05% Triton X-100 instead of Tris and NP40 respectively.

in vivo = settings: mouse

Chain of CDK7/cyclin H (P50613 whole entry, species assumed): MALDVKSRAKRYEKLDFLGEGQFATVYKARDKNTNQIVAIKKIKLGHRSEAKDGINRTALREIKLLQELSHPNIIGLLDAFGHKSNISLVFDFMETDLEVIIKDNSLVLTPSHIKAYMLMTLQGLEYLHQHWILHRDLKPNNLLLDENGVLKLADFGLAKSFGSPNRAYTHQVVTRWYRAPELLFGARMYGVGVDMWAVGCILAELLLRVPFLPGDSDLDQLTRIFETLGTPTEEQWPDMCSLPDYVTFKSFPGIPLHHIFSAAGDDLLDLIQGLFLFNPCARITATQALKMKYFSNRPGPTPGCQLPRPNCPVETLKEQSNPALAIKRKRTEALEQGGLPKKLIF
Chain of CDK7/cyclin H (P51946 whole entry partner, species assumed): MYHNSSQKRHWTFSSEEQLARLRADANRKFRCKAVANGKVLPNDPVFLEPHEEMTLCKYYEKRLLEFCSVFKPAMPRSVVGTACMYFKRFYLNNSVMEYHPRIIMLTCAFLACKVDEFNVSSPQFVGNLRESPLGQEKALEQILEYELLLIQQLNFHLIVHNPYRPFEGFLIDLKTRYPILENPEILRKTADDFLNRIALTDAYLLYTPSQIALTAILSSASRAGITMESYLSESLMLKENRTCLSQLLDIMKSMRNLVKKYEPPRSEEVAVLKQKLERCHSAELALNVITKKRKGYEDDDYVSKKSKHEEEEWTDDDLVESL
Chain of CDK4/cyclin D1 (P11802 whole entry, species assumed): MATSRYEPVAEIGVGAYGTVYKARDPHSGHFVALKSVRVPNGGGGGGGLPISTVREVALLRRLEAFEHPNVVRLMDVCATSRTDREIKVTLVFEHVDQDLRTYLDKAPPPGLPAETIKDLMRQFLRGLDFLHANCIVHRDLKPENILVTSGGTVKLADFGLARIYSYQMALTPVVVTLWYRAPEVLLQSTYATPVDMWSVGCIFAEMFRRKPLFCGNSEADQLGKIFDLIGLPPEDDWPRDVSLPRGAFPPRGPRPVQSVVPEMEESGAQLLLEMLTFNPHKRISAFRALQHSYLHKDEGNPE
Chain of CDK4/cyclin D1 (P24385 whole entry partner, species assumed): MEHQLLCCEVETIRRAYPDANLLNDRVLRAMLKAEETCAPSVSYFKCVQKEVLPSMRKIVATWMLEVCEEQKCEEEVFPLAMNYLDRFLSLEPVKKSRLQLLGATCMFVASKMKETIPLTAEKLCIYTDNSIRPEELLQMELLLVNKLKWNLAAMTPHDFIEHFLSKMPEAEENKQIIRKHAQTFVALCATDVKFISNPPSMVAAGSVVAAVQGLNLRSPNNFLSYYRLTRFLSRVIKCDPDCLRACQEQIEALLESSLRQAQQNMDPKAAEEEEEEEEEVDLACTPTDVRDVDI
T2 sequence (P63085 whole entry): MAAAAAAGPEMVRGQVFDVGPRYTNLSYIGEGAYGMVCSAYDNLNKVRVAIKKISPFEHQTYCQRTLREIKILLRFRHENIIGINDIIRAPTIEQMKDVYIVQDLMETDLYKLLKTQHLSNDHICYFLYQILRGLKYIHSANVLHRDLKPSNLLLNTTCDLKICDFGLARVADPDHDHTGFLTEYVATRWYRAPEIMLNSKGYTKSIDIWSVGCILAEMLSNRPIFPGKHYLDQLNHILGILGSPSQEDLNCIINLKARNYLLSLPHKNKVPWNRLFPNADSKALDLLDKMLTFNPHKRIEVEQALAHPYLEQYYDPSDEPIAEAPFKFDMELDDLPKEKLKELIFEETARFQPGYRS

Row | IC50 (A2780) [µM] | IC50 (A2780 CisR) [µM] | IC50 (HCT116) [µM] | IC50 (HT29) [µM] | IC50 [1] [µM] | PK remark: carbinol metabolism [2] | IC50 (CDK4/cyclin D1) [µM] | IC50 (CDK7/cyclin H) [µM] | IC50 [3] [µM] | IC50 (mouse ERK-2) | IC50 (A549, HT29, Saos-2) [µM] | IC50 (CDK2/cyclin E) [µM] | AUC(0-inf) (in vivo) [ng·h/mL] | half-life (in vivo) [h] | SMILES | IC50 (CH1) [µM] | IC50 (CH1DoxR) [µM] | IC50 (KM12) [µM]
1 | 6.6 | 15 | 12 | 15 | 13.8 | Blocked carbinol metabolism |  |  |  |  |  |  |  |  | CC[C@@H](Nc1nc(NCc2ccccc2)c2ncn(C(C)C)c2n1)C(C)O (mixture of isomers) [7 (2RS,3R), (2RS, 3R)-3-(6-Benzylamino-9-isopropyl-9H-purin-2-ylamino)-pentan-2-ol] | 17 | 12 | 19
2 | 3.3 | 3.4 | 1.5 | 5 |  | Blocked carbinol metabolism |  |  |  |  |  |  |  |  | CC[C@H](Nc1nc(NCc2ccccc2)c2ncn(C(C)C)c2n1)[C@@H](C)O [Example 7 (2R,3S), (2R,3S)-3-(6-Benylamino-9-isopropyl-9H-purin-2-ylamino)-pentan-2-ol] | 1.8 | 1.3 | 1.9
3 | 6.4 | 3.8 | 5.4 |  | 6.9 | Blocked carbinol metabolism |  |  |  |  |  |  |  |  | CC[C@@H](Nc1nc(NCc2ccccc2)c2ncn(C(C)C)c2n1)[C@H](C)O [Example 7 (2S,3R), (2S, 3R)-3-(6-Benzylamino-9-isopropyl-9H-purin-2-ylamino)-pentan-2-ol] | 5 | 4.6 | 5.4
4 |  |  |  |  |  |  |  |  | > 50 | > 50 µM and 43 µM and 29 µM |  |  |  |  | CCC(Nc1nc(NCc2ccccc2)c2ncn(C(C)C)c2n1)C(C)O (stereo not drawn) [Example 7] |  |  | 
5 |  |  |  |  |  |  |  |  | 83 | 88 µM |  |  |  |  | CC[C@H](Nc1nc(NCc2ccccc2)c2ncn(C(C)C)c2n1)C(O)C(C)C (stereo partly drawn) [Example 12] |  |  | 

More lines, now with the values behind:

Row | SMILES | IC50 (A2780) [µM] | IC50 (A2780 CisR) [µM] | IC50 (HCT116) [µM] | IC50 (HT29) [µM] | IC50 [1] [µM] | PK remark: carbinol metabolism [2] | IC50 (CDK4/cyclin D1) [µM] | IC50 (CDK7/cyclin H) [µM] | IC50 [3] [µM] | IC50 (mouse ERK-2) | IC50 (A549, HT29, Saos-2) [µM] | IC50 (CDK2/cyclin E) [µM] | AUC(0-inf) (in vivo) [ng·h/mL] | half-life (in vivo) [h] | IC50 (CH1) [µM] | IC50 (CH1DoxR) [µM] | IC50 (KM12) [µM]
6 | CCC(O)[C@@H](CC)Nc1nc(NCc2ccccc2)c2ncn(C(C)C)c2n1 (mixture of isomers) [Example 9, (3RS,4R)-4-(6-Benzylamino-9-isopropyl-9H-purin-2-ylamino)-hexan-3-ol] |  |  |  |  |  |  | 34 | 1.2 | 139 | 103 µM | 11 |  |  |  |  |  | 
7 | CC[C@@H](Nc1nc(NCc2ccccc2)c2ncn(C(C)C)c2n1)C(O)C(C)C (mixture of isomers) [Example 11, (3RS,4R)-4-(6-Benzylamino-9-isopropyl-9H-purin-2-ylamino)-2-methyl-hexan-3-ol] |  |  |  |  |  |  | 28 | 4.4 | 92 | > 200 µM | 11 |  |  |  |  |  | 
8 | CC[C@@H](Nc1nc(NCc2ccccc2)c2ncn(C(C)C)c2n1)C(O)C(C)(C)C (mixture of isomers) [Example 13, (3RS,4R)-4-(6-Benzylamino-9-isopropyl-9H-purin-2-ylamino)-2,2-dimethyl-hexan-3-ol] |  |  |  |  |  |  | > 200 | 3.7 | 87 | > 200 µM | 18 |  |  |  |  |  | 
9 | CC[C@H](Nc1nc(NCc2ccccc2)c2ncn(C(C)C)c2n1)C(O)C(C)(C)C (mixture of isomers) [Example 14, (3RS,4S)-4-(6-Benzylamino-9-isopropyl-9H-purin-2-ylamino)-2,2-dimethyl-hexan-3-ol] |  |  |  |  |  |  | 60 | 4.3 | > 200 | > 200 µM | 22 |  |  |  |  |  | 
10 | OC1CCCN(c2nc(Nc3ccc4c(c3)CCC4)c3ncn(C4CCCC4)c3n2)C1 (stereo not drawn) [Example 1, 1-[9-Cyclopentyl-6-(indan-5-ylamino)-9H-purin-2-yl]-piperidin-3-ol] | 2.2 | 1.1 | 5.7 | 1.8 | 2 |  |  |  |  |  |  | 0.58 ± 0.33 | 62500 | 5.5 | 1.5 | 1.7 | 0.34
11 | COc1ccc(CNc2nc(N3CCCC(O)C3)nc3c2ncn3C2CCCC2)cc1OC (stereo not drawn) [Example 2, 1-[9-Cyclopentyl-6-(3.4-dimethoxy-benzylamino)-9H-purin-2-yl]piperidin-3-ol] | 0.078 | 14 | 6.1 | 4.4 | 4.9 |  |  |  |  |  |  | 1.84 ± 0.31 | 19500 | 4.2 | 0.94 | 2.4 | 6.4
12 | CC(C)[C@H](CO)Nc1nc(Nc2cccc([N+](=O)[O-])c2)c2ncn(C(C)C)c2n1 [Example 3, (R)-2-[9-Isopropyl-6-(3-nitro-phenylamino)-9H-purin-2-ylamino]-3-methyl-butan-1-ol] | 1.1 | 2.85 | 2.45 | 4.3 | 2.3 |  |  |  |  |  |  | 0.33 ± 0.45 |  |  | 2.3 | 1.8 | 1.05
13 | CC[C@H](CO)Nc1nc(Nc2cccc([N+](=O)[O-])c2)c2ncn(C(C)C)c2n1 [Example 4, (R)-2-[9-Isopropyl-6-(3-nitro-phenlamino)-9H-purin-2-ylamino]-butan-1-ol] | 0.245 | 1.7 | 1.2 | 2.1 | 1.1 |  |  |  |  |  |  | 0.028 ± 0.01 |  |  | 1.1 | 0.56 | 0.76
14 | CCC(O)[C@H](CC)Nc1nc(NCc2ccccc2)c2ncn(C(C)C)c2n1 (stereo partly drawn) [Example 10] |  |  |  |  |  |  |  |  | > 200 |  | 20 |  |  |  |  |  | 
15 | CC[C@@H](Nc1nc(NCc2ccccc2)c2ncn(C(C)C)c2n1)C(C)(C)O [Example 15] |  |  |  |  |  |  | 12 | 3.7 | 191 |  | 15 |  |  |  |  |  | 
16 | CC[C@H](Nc1nc(NCc2ccccc2)c2ncn(C(C)C)c2n1)C(C)(C)O [Example 16, (S)-3-(6-Benzylamino-9-isopropyl-9H-purin-2-ylamino)-2 methyl-pentan-2-ol] |  |  |  |  |  |  | 8.5 | 2 | ≥ 200 |  | 10 |  |  |  |  |  | 
